Results published in US20100317850A1 (priority 2008, published 2010).

Test system: Aβ42 production
Test: Quantification of Aβ peptide in culture of neurons from rat fetus brain (Aβ ELISA)
Assay type: cell-based
Settings: Neuron, 72 h; rat primary neuronal culture (cerebral cortex, embryonic day 18 Wistar rats); medium collected three days after addition of the compound; Aβx-42 ELISA; read-out: Aβ42 production reducing effect IC50
Experimental: Quantification of Aβ Peptide in Culture of Neurons from Rat Fetus Brain
(1) Rat Primary Neuronal Culture
Primary neuronal cultures were prepared from the cerebral cortex of embryonic day 18 Wistar rats (Charles River Japan, Yokohama, Japan). Specifically, the embryos were aseptically removed from pregnant rats under ether anesthesia. The brain was isolated from the embryo and immersed in an ice-cold L-15 medium (such as Invitrogen Corp. Cat #11415-064, Carlsbad, Calif., USA, or SIGMA L1518). The cerebral cortex was collected from the isolated brain under a stereoscopic microscope. The cerebral cortex fragments collected were enzymatically treated in an enzyme solution containing 0.25% trypsin (Invitrogen Corp. Cat #15050-065, Carlsbad, Calif., USA) and 0.01% DNase (Sigma D5025, St. Louis, Mo., USA) at 37° C. for 30 minutes to disperse the cells. Here, the enzymatic reaction was stopped by adding inactivated horse serum to the solution. The enzymatically treated solution was centrifuged at 1,500 rpm for five minutes to remove the supernatant. 5 to 10 mL of a medium was added to the resulting cell mass. Neurobasal medium (Invitrogen Corp. Cat #21103-049, Carlsbad, Calif., USA) supplemented with 2% B27 supplement (Invitrogen Corp. Cat #17504-044, Carlsbad, Calif., USA), 25 μM 2-mercaptoethanol (2-ME, WAKO Cat #139-06861, Osaka, Japan), 0.5 mM L-glutamine (Invitrogen Corp. Cat #25030-081, Carlsbad, Calif., USA), and Antibiotics-Antimycotics (Invitrogen Corp. Cat #15240-062, Carlsbad, Calif., USA) was used as the medium (Neurobasal/B27/2-ME). However, the above Neurobasal medium not supplemented with 2-ME (Neurobasal/B27) was used for the assay. The cells were redispersed by mild pipetting of the cell mass to which the medium was added. The cell dispersion was filtered through a 40-μm nylon mesh (Cell Strainer, Cat #35-2340, Becton Dickinson Labware, Franklin Lakes, N.J., USA) to remove the remaining cell mass, and thus a neuronal cell suspension was obtained. The neuronal cell suspension was diluted with the medium and then plated in a volume of 100 μL/well at an initial cell density of 5×10^5 cells/cm^2 in a 96-well polystyrene culture plate pre-coated with poly-L or D-lysine (Falcon Cat #35-3075, Becton Dickinson Labware, Franklin Lakes, N.J., USA coated with poly-L-lysine using the method shown below, or BIOCOAT™ cell environments Poly-D-lysine cell ware 96-well plate, Cat #35-6461, Becton Dickinson Labware, Franklin Lakes, N.J., USA). Poly-L-lysine coating was carried out as follows. 100 μg/mL of a poly-L-lysine (SIGMA P2636, St. Louis, Mo., USA) solution was aseptically prepared with a 0.15 M borate buffer (pH 8.5). […] of the solution was added to the 96-well polystyrene culture plate and incubated at room temperature for one or more hours or at 4° C. overnight or longer. Thereafter, the coated 96-well polystyrene culture plate was washed with sterile water four or more times, and then dried or rinsed with, for example, sterile PBS or medium, and used for cell plating. The plated cells were cultured in the culture plate at 37° C. in 5% CO2-95% air for one day. Then, the total amount of the medium was replaced with a fresh Neurobasal™/B27/2-ME medium, and then the cells were cultured for further three days.
The drug was added to the culture plate on Day 4 of culture as follows. The total amount of the medium was removed from the wells, and 180 μL/well of Neurobasal medium not containing 2-ME and containing 2% B-27 (Neurobasal/B27) was added thereto. A solution of the test compound in dimethyl sulfoxide (hereinafter abbreviated as DMSO) was diluted with Neurobasal/B27 to a concentration 10-fold higher than the final concentration. 20 μL/well of the dilution was added to and sufficiently mixed with the medium. The final DMSO concentration was 1% or less. Only DMSO was added to the control group.
The cells were cultured for three days after addition of the compound, and the total amount of the medium was collected. […]

For `CO[C@@H]1C[C@H]2CSC(N)=N[C@@]2(c2cc(NC(=O)c3ccc(C#N)cn3)ccc2F)C1` (relative stereo) [Example 32, (+)-N-[3-((4aR*,6R*,7aS*)-2-amino-6-methoxy-4a,5,6,7-tetrahydro-4H-cyclopenta[d][1,3]thiazin-7a-yl)-4-fluorophenyl]-5-cyanopyridine-2-carboxamide], the IC50 was 1.1 nM.
Compound `N#Cc1ccc(C(=O)Nc2ccc(F)c([C@]34CCCCC[C@H]3CSC(N)=N4)c2)nc1` (relative stereo) [Example 33, (+)-N-[3-((4aR*,9aS*)-2-amino-4a,5,6,7,8,9-hexahydro-4H-cyclohepta[d][1,3]thiazin-9a-yl)-4-fluorophenyl]-5-cyanopyridine-2-carboxamide] has an IC50 of 10 nM.
`CC[C@H]1OC[C@]2(c3cc(NC(=O)c4ccc(C#N)cn4)ccc3F)N=C(N)SC[C@H]12` (relative stereo) [Example 49, N-[3-((4aS*,5R*,7aS*)-2-amino-5-ethyl-4a,5-dihydro-4H-furo[3,4-d][1,3]thiazin-7a-yl)-4-fluorophenyl]-5-cyanopyridine-2-carboxamide] gave an IC50 of 0.8 nM.
For `CC[C@H]1OC[C@]2(c3cc(NC(=O)c4cnc(OC(F)F)cn4)ccc3F)N=C(N)SC[C@H]12` (relative stereo) [Example 50, N-[3-((4aS*,5R*,7aS*)-2-amino-5-ethyl-4a,5-dihydro-4H-furo[3,4-d][1,3]thiazin-7a-yl)-4-fluorophenyl]-5-difluoromethoxypyrazine-2-carboxamide], the IC50 was 0.9 nM.
For `CC[C@H]1OC[C@]2(c3cc(NC(=O)c4ccc(Cl)cn4)ccc3F)N=C(N)SC[C@H]12` (relative stereo) [Example 51, N-[3-((4aS*,5R*,7aS*)-2-amino-5-ethyl-4a,5-dihydro-4H-furo[3,4-d][1,3]thiazin-7a-yl)-4-fluorophenyl]-5-chloropyridine-2-carboxamide], the IC50 was 1.6 nM.
For `CC[C@H]1OC[C@]2(c3cc(NC(=O)c4cnc(OCF)cn4)ccc3F)N=C(N)SC[C@H]12` (relative stereo) [Example 52, N-[3-((4aS*, 5R*,7aS*)-2-amino-5-ethyl-4a,5-dihydro-4H-furo[3,4-d][1,3]thiazin-7a-yl)-4-fluorophenyl]-5-fluoromethoxypyrazine-2-carboxamide], the IC50 was 2 nM.
In the case of `CC[C@H]1OC[C@]2(c3cc(NC(=O)c4cnc(C(F)F)cn4)ccc3F)N=C(N)SC[C@H]12` (relative stereo) [Example 53, N-[3-((4aS*,5R*,7aS*)-2-amino-5-ethyl-4a,5-dihydro-4H-furo[3,4-d][1,3]thiazin-7a-yl)-4-fluorophenyl]-5-difluoromethylpyrazine-2-carboxamide], the IC50 is reported as 2 nM.
Compound `C[C@H]1OC[C@]2(c3cc(NC(=O)c4ccc(C#N)cn4)ccc3F)N=C(N)SC[C@H]12` (relative stereo) [Example 54, N-[3-((4aS*,5R*,7aS*)-2-amino-5-methyl-4,5-dihydro-4H-furo[3,4-d][1,3]thiazin-7a-yl-4-fluorophenyl]-5-cyanopyridine-2-carboxamide] has an IC50 of 1.7 nM.
`C[C@H]1OC[C@]2(c3cc(NC(=O)c4cnc(OC(F)F)cn4)ccc3F)N=C(N)SC[C@H]12` (relative stereo) [Example 55, N-[3-((4aS*,5R*,7aS*)-2-amino-5-methyl-4a,5-dihydro-4H-furo[3,4-d][1,3]thiazin-7a-yl)-4-fluorophenyl]-5-difluoromethoxypyrazine-2-carboxamide] gave an IC50 of 1.1 nM.
Work on `C[C@H]1OC[C@]2(c3cc(NC(=O)c4ccc(Cl)cn4)ccc3F)N=C(N)SC[C@H]12` (relative stereo) [Example 56, N-[3-((4aS*,5R*,7aS*)-2-amino-5-meth 1-4a,5-dihydro-4H-furo[3,4-d][1,3]thiazin-7a-yl)-4-fluorophenyl]-5-chloropyridine-2-carboxamide] yielded an IC50 of 3 nM.
`C[C@H]1OC[C@]2(c3cc(NC(=O)c4cnc(OCF)cn4)ccc3F)N=C(N)SC[C@H]12` (relative stereo) [Example 57, N-[3-((4aS*,5R*,7aS*)-2-amino-5-methyl-4a,5-dihydro-4H-furo[3,4-d][1,3]thiazin-7a-yl)-4-fluorophenyl]-5-fluoromethoxypyrazine-2-carboxamide] gave an IC50 of 3 nM.
With `C[C@H]1OC[C@]2(c3cc(NC(=O)c4cnc(C(F)F)cn4)ccc3F)N=C(N)SC[C@H]12` (relative stereo) [Example 58, N-[3-((4aS*,5R*,7aS*)-2-amino-5-methyl-4a,5-dihydro-4H-furo[3,4-d][1,3]thiazin-7a-yl)-4-fluorophenyl]-5-difluoromethylpyrazine-2-carboxamide] the IC50 was 7 nM.
`C[C@H]1OC[C@]2(c3cc(NC(=O)c4ccc(OC(F)F)cn4)ccc3F)N=C(N)SC[C@H]12` (relative stereo) [Example 59, N-[3-((4aS*,5R*,7aS*)-2-amino-5-methyl-4a,5-dihydro-4H-furo[3,4-d][1,3]thiazin-7a-yl)-4-fluorophenyl]-5-difluoromethoxypyridine-2-carboxamide] showed an IC50 of 2 nM.
`C[C@H]1OC[C@]2(c3cc(NC(=O)c4ccncn4)ccc3F)N=C(N)SC[C@H]12` (relative stereo) [Example 60, N-[3-((4aS*,5R*,7aS*)-2-amino-5-methyl-4a,5-dihydro-4H-furo[3,4-d][1,3]thiazin-7a-yl)-4-fluorophenyl]-pyrimidine-4-carboxamide] gave an IC50 of 12 nM.
`CO[C@H]1CC[C@]2(c3cc(NC(=O)c4ccc(C#N)cn4)ccc3F)N=C(N)SC[C@H]12` (relative stereo) [Example 63, N-[3-((4aS*,5S*,7aS*)-2-amino-5-methoxy-4a,5,6,7-tetrahydro-4H-cyclopenta[d][1,3]thiazin-7a-yl)-4-fluorophenyl]-5-cyanopyridine-2-carboxamide] gave an IC50 of 11 nM.
`CO[C@H]1CC[C@]2(c3cc(NC(=O)c4cnc(OC(F)F)cn4)ccc3F)N=C(N)SC[C@H]12` (relative stereo) [Example 64, N-[3-((4aS*,5S*,7aS*)-2-amino-5-methoxy-4a,5,6,7-tetrahydro-4H-cyclopenta[d][1,3]thiazin-7a-yl)-4-fluorophenyl]-5-difluoromethoxypyrazine-2-carboxamide] was tested, and the IC50 was 8 nM.
In the case of `CO[C@@H]1CC[C@]2(c3cc(NC(=O)c4ccc(C#N)cn4)ccc3F)N=C(N)SC[C@H]12` (relative stereo) [Example 65, N-[3-((4aS*,5R*,7aS*)-2-amino-5-methoxy-4a,5,6,7-tetrahydro-4H-cyclopenta[d][1,3]thiazin-7a-yl)-4-fluorophenyl]-5-cyanopyridine-2-carboxamide], the IC50 is reported as 38 nM.
Compound `NC1=N[C@@]2(c3cc(NC(=O)c4cnc(C(F)F)cn4)ccc3F)CCOC[C@H]2CS1` (relative stereo) [Example 79, N-[3-((4aS*,8aS*)-2-amino-4a,5,7,8-tetrahydro-4H-6-oxa-3-thia-1-azanaphthalen-8a-yl)-4-fluorophenyl]-5-difluoromethylpyrazine-2-carboxamide] has an IC50 of 28 nM.
Work on `NC1=N[C@@]2(c3cc(NC(=O)c4cnc(OCF)cn4)ccc3F)CCOC[C@H]2CS1` (relative stereo) [Example 80, N-[3-((4aS*,8aS*)-2-amino-4a,5,7,8-tetrahydro-4H-6-oxa-3-thia-1-azanaphthalen-8a-yl)-4-fluorophenyl]-5-fluoromethoxypyrazine-2-carboxamide] yielded an IC50 of 8 nM.
